The source of these data is publication PMC6720605, “Bioactivity of Methoxylated and Methylated 1-Hydroxynaphthalene-2-Carboxanilides: Comparative Molecular Surface Analysis” (Molecules, 2019).

In general, MIC refers to the lowest concentration found to suppress growth. Usually IC50 stands for the concentration needed to halve the response being measured. A low value points to greater potency in that assay. For orientation: melting point means the temperature of the solid-liquid transition.

Each structure is given as a SMILES string. In brackets after ≈: the same amount, converted by molar mass. Where two headings read alike, the source gives them in different places.

Series [1] can be described thus: Lipophilicity determination by HPLC (capacity factor k / calculated log k). The class given is physicochemical. Conditions: experimental lipophilicity. The method, then: The lipophilicity determination was performed as described by Kapustikova et al..
Series [2] concerns Staphylococcus aureus ATCC 29213. The series is described as follows: In vitro antistaphylococcal susceptibility testing (MIC), reference strain. The class given is cell-based. The procedure:
(§1) The synthesized compounds were evaluated for in vitro antibacterial activity against representatives of multidrug-resistant bacteria, clinical isolates of methicillin-resistant Staphylococcus aureus (MRSA) 63718, SA 630 and SA 3202 [16, 17] that were obtained from the National Institute of Public Health (Prague, Czech Republic). S. aureus ATCC 29213 was used as the reference and quality control strain. Ampicillin (Sigma, St. Louis, MO, USA) was used as the standard. The screening was performed as described previously.

Series [3] deals with methicillin-resistant S. aureus 63718. The series is described as follows: In vitro antibacterial evaluation (MIC), MRSA clinical isolate 63718. The class given is cell-based, Staphylococcus aureus. Conditions: Staphylococcus aureus. The method, then: as §1
For series [4], the system named is methicillin-resistant S. aureus SA 630. Description: In vitro antibacterial evaluation (MIC), MRSA clinical isolate SA 630. In kind it is cell-based, Staphylococcus aureus. Conditions: Staphylococcus aureus, read-out: MIC MRSA SA 630. The method, then:
as §1

Series [5] has as its system methicillin-resistant S. aureus SA 3202. The series is described as follows: In vitro antibacterial evaluation (MIC), MRSA clinical isolate SA 3202. In kind it is cell-based, Staphylococcus aureus. Particulars: Staphylococcus aureus, read-out: MIC MRSA SA 3202. The procedure: as §1
For series [6], the system named is Mycobacterium tuberculosis H37Ra ATCC 25177. Description: In vitro antimycobacterial evaluation (MIC), M. tuberculosis. In kind it is cell-based. The procedure: (§2) The evaluation of the in vitro antimycobacterial activity of the compounds was performed against Mycobacterium tuberculosis H37Ra ATCC 25177 and M. kansasii DSM 44162 by means of the methodology described recently [e.g., 1,3,4–6,15,43]. Isoniazid (Sigma) was used as the standard.

In another series the test system is M. kansasii DSM 44162. Description: In vitro antimycobacterial evaluation (MIC), M. kansasii. The class given is cell-based, Mycobacterium kansasii. The method, then:
as §2

Series [7] has as its system human monocytic leukaemia THP-1 cells. In kind it is cell-based. Conditions: 30 µM highest concentration. The method, then:
Human monocytic leukaemia THP-1 cells were obtained from the European Collection of Cell Cultures (ECACC, Salisbury, UK; Methods of characterization: DNA Fingerprinting (Multilocus probes) and isoenzyme analysis). Cell toxicity was determined using a Cytotoxicity Detection Kit^PLUS Lactate dehydrogenase (LDH) assay kit (Roche Diagnostics, Mannheim, Germany) according to the manufacturer’s instructions, as described previously.

In series [8] the test system is photosynthetic electron transport (PET) in spinach (Spinacia oleracea L.) chloroplasts. Description: Inhibition of photosynthetic electron transport (PET) in spinach chloroplasts. The class given is biochemical. The procedure:
The PET-inhibiting investigation using chloroplasts from spinach (Spinacia oleracea L.) was performed as described previously.

Series [9] relates to M. tuberculosis ATCC 25177/H37Ra. The series is described as follows: MTT assay, viability of M. tuberculosis. The class given is cell-based, Mycobacterium tuberculosis. Particulars: at tested MIC concentration; 7 days. The procedure: Compounds were prepared as previously stated and diluted in MH or MB broth for S. aureus to achieve the desired final concentrations 0.5 and 1 µg/mL, respectively, for S. aureus ATCC 29213, and 2 and 8 µg/mL, respectively, for M. tuberculosis ATCC 25177/H37Ra. M. tuberculosis ATCC 25177/H37Ra was suspended in ODAC supplemented MB at 1.0 McFarland and then diluted 1:10, using MB as a diluent. The diluted mycobacteria (50 µL) were added to each well containing the compound to be tested. S. aureus bacterial suspension in sterile distilled water at 0.5 McFarland was diluted 1:3. Inocula were added to each well by multi-inoculator. Diluted mycobacteria in broth free from inhibiting compounds were used as the growth control. All compounds were prepared in duplicate. […] The plates were read at 570 nm. The absorbance readings from the cells grown in the presence of the tested compounds were compared with uninhibited cell growth to determine the relative percent inhibition. The percent inhibition was determined through the MTT assay. The percent viability is calculated through the comparison of a measured value and that of the uninhibited control: % viability = OD570E/OD570P × 100, where OD570E is the reading from the compound-exposed cells, while OD570P is the reading from the uninhibited cells (positive control). Cytotoxic potential is determined by a percent viability of <70% [37, 38, 39, 52].
A general note: Formazan colour is commonly taken as a measure of viable cells.

For a further series, the system named is S. aureus ATCC 29213. Particulars: Staphylococcus aureus, 24 h.
Setting [10] is: clinical isolate MRSA 63718, read-out: MIC MRSA 63718.
[11] abbreviates: one value for the three clinical MRSA strains (63718, SA 630, SA 3202), read-out: MIC against the MRSA strains.
Where [12] appears, read: Mycobacterium kansasii, DSM44162, M. kansasii DSM 44162, read-out: MIC MK.

Take `COc1cc(NC(=O)c2ccc3ccccc3c2O)cc(OC)c1` [Compound 6, N-(3,5-dimethoxy-phenyl)-1-hydroxynaphthalene-2-carboxamide]: in series [1], the log k is 0.7048. In addition, the MIC turned out to be 12.3 µM (≈ 3.98 µg/mL) in series [2]; 12.3 µM (≈ 3.98 µg/mL) in series [2] (ATCC29213); 24.7 µM (≈ 7.99 µg/mL) in series [3] (MRSA, read-out: MIC MRSA 63718); 24.7 µM (≈ 7.99 µg/mL) in series [3] (MRSA, read-out: MIC against the MRSA strains); 24.7 µM (≈ 7.99 µg/mL) in series [4] (MRSA); 24.7 µM (≈ 7.99 µg/mL) in [5] (MRSA). Moreover, the MIC in series [6] amounted to 24.7 µM (≈ 7.99 µg/mL); with M. kansasii DSM 44162 (Mycobacterium kansasii, DSM44162, read-out: MIC MK), 24.7 µM (≈ 7.99 µg/mL). Besides, the “Tox LD50” value in series [7] is greater than 30 µM. Also, the IC50 in series [8] stood at 13.4 µM.

For `Cc1ccc(C)c(NC(=O)c2ccc3ccccc3c2O)c1` [Compound 11, N-(2,5-dimethylphenyl)-1-hydroxynaphthalene-2-carboxamide], in series [1], the log k is on record as 0.7155. The MIC is 13.7 µM (≈ 3.99 µg/mL) in series [2] (ATCC29213); 27.5 µM (≈ 8.01 µg/mL) in series [3] (setting [10]); 27.5 µM (≈ 8.01 µg/mL) in series [3] (setting [11]); 27.5 µM (≈ 8.01 µg/mL) in [4] (clinical isolate MRSA SA 630); 27.5 µM (≈ 8.01 µg/mL) in [5] (clinical isolate MRSA SA 3202); 110 µM (≈ 32 µg/mL) in series [6]. In addition, the MIC with M. kansasii DSM 44162 (setting [12]) came out at 220 µM (≈ 64.1 µg/mL). Besides, in [7], the “Tox LD50” value is greater than 30 µM. The compound further came in with a half-inhibitory concentration (IC50) in [8] of 52.4 µM.

As to `Cc1cc(C)cc(NC(=O)c2ccc3ccccc3c2O)c1` [Compound 13, N-(3,5-dimethylphenyl)-1-hydroxynaphthalene-2-carboxamide], in series [1], the log k is recorded as 1.0030. The MIC in series [2] was 3.43 µM (≈ 0.999 µg/mL); in [2] (ATCC29213), 3.43 µM (≈ 0.999 µg/mL); in series [3] (setting [10]), 6.85 µM (≈ 2 µg/mL); in [3] (setting [11]) it was 6.85 µM (≈ 2 µg/mL); in series [4] (clinical isolate MRSA SA 630), 6.85 µM (≈ 2 µg/mL); in [5] (clinical isolate MRSA SA 3202), 6.85 µM (≈ 2 µg/mL). For the same compound, the values for the minimal inhibitory concentration (MIC) (in series [6]; in the series with M. kansasii DSM 44162 (setting [12])) were 6.86 µM (≈ 2 µg/mL) and 27.4 µM (≈ 7.98 µg/mL), respectively. In series [7], the “Tox LD50” value was greater than 30 µM. Moreover, half-maximal inhibition in series [8] (IC50) required 8.19 µM. In addition, the “viability of M. tuberculosis H37Ra (MTT)” value in series [9] stood at 32%. Also, in the series on S. aureus ATCC 29213, the “viability of S. aureus ATCC 29213 (MTT)” value was 19%.

Consider `COc1ccc(Br)cc1NC(=O)c1ccc2ccccc2c1O` [Compound 20, N-(5-Bromo-2-methoxyphenyl)-1-hydroxynaphthalene-2-carboxamide], for which the melting point lay in the range of 157 to 159 °C. The log k in [1] is 1.0432. The same compound displayed an MIC in series [2] (ATCC29213) of 687 µM (≈ 256 µg/mL). In addition, the MIC in [3] (setting [10]) was determined as 687 µM (≈ 256 µg/mL). Besides, the minimal inhibitory concentration (MIC) in series [4] (clinical isolate MRSA SA 630) amounted to 687 µM (≈ 256 µg/mL). Further, the MIC in [5] (clinical isolate MRSA SA 3202) stood at 687 µM (≈ 256 µg/mL). In series [6], this compound displayed a minimal inhibitory concentration (MIC) of 344 µM (≈ 128 µg/mL). For the same compound, the MIC in the series on M. kansasii DSM 44162 (setting [12]) came to 687 µM (≈ 256 µg/mL). In [8], this compound registered an IC50 of 569 µM.

`COc1cc(F)cc(NC(=O)c2ccc3ccccc3c2O)c1` [Compound 23, N-(3-Fluoro-5-methoxyphenyl)-1-hydroxynaphthalene-2-carboxamide]: the log k in series [1] is 0.7629. Further, the MIC is 1.60 µM (≈ 0.498 µg/mL) in series [2]; 1.6 µM (≈ 0.498 µg/mL) in series [2] (ATCC29213); 3.21 µM (≈ 0.999 µg/mL) in series [3] (setting [10]); 3.21 µM (≈ 0.999 µg/mL) in series [3] (setting [11]); 3.21 µM (≈ 0.999 µg/mL) in series [4] (clinical isolate MRSA SA 630); 3.21 µM (≈ 0.999 µg/mL) in series [5] (clinical isolate MRSA SA 3202). Further, the MIC in series [6] amounted to 25.6 µM (≈ 7.97 µg/mL); in the series with M. kansasii DSM 44162 (M. kansasii DSM 44162, read-out: MIC MK) it was 12.0 µM (≈ 3.74 µg/mL); in the series with M. kansasii DSM 44162 (setting [12]) it was 12 µM (≈ 3.74 µg/mL). Further, in series [7], the “Tox LD50” value was greater than 30 µM. Further, the IC50 in series [8] was 10.1 µM. In the series on S. aureus ATCC 29213, the “viability of S. aureus ATCC 29213 (MTT)” value was found to be 49%.

For `CC[C@@]1(O)C(=O)OCc2c1cc1n(c2=O)Cc2cc3ccccc3nc2-1` [camptothecin, reference compound], the “Tox LD50” value in series [7] is 0.16 ± 0.07 µM.
